Assay results reported in patent US10428051B2 (priority 2015, dated 2019).
pKi: −log10 of the molar value. Where two headings read alike, the source gives them in different places.

Target: human σ1 receptor (Homo sapiens, UniProt Q99720)
Experiment: biochemical
Assay type: binding
Parameters: μ and σ1 dual (binding to the σ1 receptor and the μ-opioid receptor expressed as Ki): key to the marks not given beside the values

Chain of human σ1 receptor (Q99720 whole entry): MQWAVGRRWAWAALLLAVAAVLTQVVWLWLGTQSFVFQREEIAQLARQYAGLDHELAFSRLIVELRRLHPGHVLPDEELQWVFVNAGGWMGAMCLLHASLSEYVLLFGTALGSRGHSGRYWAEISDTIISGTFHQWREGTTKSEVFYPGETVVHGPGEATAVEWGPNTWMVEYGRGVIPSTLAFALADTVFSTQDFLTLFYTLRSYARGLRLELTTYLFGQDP

With `CCOCCN1CCN(C2(CN(C(=O)CC)c3ncccc3F)CCOC(C)(C)C2)CC1` (stereo not drawn) [Example 169, N-((4-(4-(2-ethoxyethyl)piperazin-1-yl)-2,2-dimethyltetrahydro-2H-pyran-4-yl)methyl)-N-(3-fluoropyridin-2-yl)propionamide] as the molecule, how does the pKi read?
The pKi was < 6.30.

Which “μ and σ1 dual (binding to the σ1 receptor and the μ-opioid receptor expressed as Ki)” value (“μ and σ1 dual” for short) does the source give for `CCC(=O)N(CC1(N2CCN(CC(C)C)CC2)CCOC(C)(C)C1)c1ncccc1F` (stereo not drawn) [Example 170, N-(3-fluoropyridin-2-yl)-N-((4-(4-isobutylpiperazin-1-yl)-2,2-dimethyltetrahydro-2H-pyran-4-yl)methyl)propionamide] here?
Its value is “++”.

`CCOCCN1CCN(C2(CN(C(=O)CC)c3cccc(C#N)n3)CCOC(C)(C)C2)CC1` (stereo not drawn) [Example 171, N-(6-cyanopyridin-2-yl)-N-((4-(4-(2-ethoxyethyl)piperazin-1-yl)-2,2-dimethyltetrahydro-2H-pyran-4-yl)methyl)propionamide] was tested. Which pKi did it give?
The pKi was < 6.30.

With `CCC(=O)N(CC1(N2CCN(CCOC(C)C)CC2)CCOC(C)(C)C1)c1cccc(C#N)n1` (stereo not drawn) [Example 172, N-(6-cyanopyridin-2-yl)-N-((4-(4-(2-isopropoxyethyl)piperazin-1-yl)-2,2-dimethyltetrahydro-2H-pyran-4-yl)methyl)propionamide] as the molecule, how does the pKi read?
The pKi was < 6.30.

With `CCC(=O)N(CC1(N2CCN(CCC(C)C)CC2)CCOC2(CCCC2)C1)c1cccc(C(F)(F)F)n1` (stereo not drawn) [Example 173, N-((9-(4-isopentylpiperazin-1-yl)-6-oxaspiro[4.5]decan-9-yl)methyl)-N-(6-(trifluoromethyl)pyridin-2-yl)propionamide] as the molecule, how does the pKi read?
The pKi was > 6.30.

`CCC(=O)N(CC1(N2CCN(CCOC(C)C)CC2)CCOC2(CCCC2)C1)c1cccc(C(F)(F)F)n1` (stereo not drawn) [Example 174, N-((9-(4-(2-isopropoxyethyl)piperazin-1-yl)-6-oxaspiro[4.5]decan-9-yl)methyl)-N-(6-(trifluoromethyl)pyridin-2-yl)propionamide] was tested. Which pKi did it give?
The pKi was > 6.30.

`CCC(=O)N(CC1(N2CCN(CC(C)C)CC2)CCOC2(CCCC2)C1)c1cccc(C(F)(F)F)n1` (stereo not drawn) [Example 175, N-((9-(4-isobutylpiperazin-1-yl)-6-oxaspiro[4.5]decan-9-yl)methyl)-N-(6-(trifluoromethyl)pyridin-2-yl)propionamide] was tested. Which pKi did it give?
The pKi was > 6.30.

How did the pKi turn out when `CCOCCN1CCN(C2(CN(C(=O)CC)c3cccc(C(F)(F)F)n3)CCOC3(CCCC3)C2)CC1` (stereo not drawn) [Example 176, N-((9-(4-(2-ethoxyethyl)piperazin-1-yl)-6-oxaspiro[4.5]decan-9-yl)methyl)-N-(6-(trifluoromethyl)pyridin-2-yl)propionamide] was run?
The pKi was > 6.30.

With `CCOCCN1CCC(C2(CN(C(=O)CC)c3cccc(C(F)(F)F)n3)CCOCC2)CC1` [Example 177, N-((4-(1-(2-ethoxyethyl)piperidin-4-yl)tetrahydro-2H-pyran-4-yl)methyl)-N-(6-(trifluoromethyl)pyridin-2-yl)propionamide] as the molecule, how does the pKi read?
Its pKi is > 6.30.

With `CCC(=O)N(CC1(C2CCN(CC(C)C)CC2)CCOCC1)c1cccc(C(F)(F)F)n1` [Example 178, N-((4-(1-isobutylpiperidin-4-yl)tetrahydro-2H-pyran-4-yl)methyl)-N-(6-(trifluoromethyl)pyridin-2-yl)propionamide] as the molecule, how does the “μ and σ1 dual” value read?
The value was “++”.

`CCC(=O)N(CC1(N2CCN(CCOC(C)C)CC2)CC1)c1cccc(C(F)(F)F)n1` [Example 179, N-((1-(4-(2-isopropoxyethyl)piperazin-1-yl)cyclopropyl)methyl)-N-(6-(trifluoromethyl)pyridin-2-yl)propionamide] was tested. Which pKi did it give?
Its pKi is > 6.30.

How did the pKi turn out when `CCC(=O)N(CC1(N2CCN(C(C(=O)OC)c3ccccc3)CC2)CCOCC1)c1ccccn1` (stereo not drawn) [Example 180, methyl 2-phenyl-2-(4-(4-((N-(pyridin-2-yl)propionamido)methyl)tetrahydro-2H-pyran-4-yl)piperazin-1-yl)acetate] was run?
Its pKi is < 6.30.

With `CCC(=O)N(CC1(N2CCN(C(CO)c3ccccc3)CC2)CCOCC1)c1ccccn1` (stereo not drawn) [Example 181, N-((4-(4-(2-hydroxy-1-phenylethyl)piperazin-1-yl)tetrahydro-2H-pyran-4-yl)methyl)-N-(pyridin-2-yl)propionamide] as the molecule, how does the pKi read?
Its pKi is < 6.30.

How did the pKi turn out when `CCC(=O)N(CC1(N2CCN(C(C)c3ccc(F)cc3)CC2)CCOCC1)c1cccc(C(F)(F)F)n1` (stereo not drawn) [Example 182, N-((4-(4-(1-(4-fluorophenyl)ethyl)piperazin-1-yl)tetrahydro-2H-pyran-4-yl)methyl)-N-(6-(trifluoromethyl)pyridin-2-yl)propionamide] was run?
Its pKi is > 6.30.

How did the pKi turn out when `CCC(=O)N(CC1(N2CCN(CCOC3CC3)CC2)CCOCC1)c1cccc(C(F)(F)F)n1` [Example 183, N-((4-(4-(2-cyclopropoxyethyl)piperazin-1-yl)tetrahydro-2H-pyran-4-yl)methyl)-N-(6-(trifluoromethyl)pyridin-2-yl)propionamide] was run?
The pKi was > 6.30.

How did the pKi turn out when `CCC(=O)N(CC1(N2CCN(CCN3CCOCC3)CC2)CCOCC1)c1cccc(C(F)(F)F)n1` [Example 184, N-((4-(4-(2-morpholinoethyl)piperazin-1-yl)tetrahydro-2H-pyran-4-yl)methyl)-N-(6-(trifluoromethyl)pyridin-2-yl)propionamide] was run?
The pKi was < 6.30.

`CCC(=O)N(CC1(N2CCN(CCOCC(C)(C)O)CC2)CCOCC1)c1cccc(C(F)(F)F)n1` [Example 186, N-((4-(4-(2-(2-hydroxy-2-methylpropoxy)ethyl)piperazin-1-yl)tetrahydro-2H-pyran-4-yl)methyl)-N-(6-(trifluoromethyl)pyridin-2-yl)propionamide] was tested. Which “μ and σ1 dual” value did it give?
The value was “++”.

`CCC(=O)N(CC1(N2CCN(CCOCC(C)(C)F)CC2)CCOCC1)c1cccc(C(F)(F)F)n1` [Example 189, N-((4-(4-(2-(2-fluoro-2-methylpropoxy)ethyl)piperazin-1-yl)tetrahydro-2H-pyran-4-yl)methyl)-N-(6-(trifluoromethyl)pyridin-2-yl)propionamide] was tested. Which pKi did it give?
Its pKi is > 7.00.

With `CCC(=O)N(CC1(N2CCN(CC(C)(C)F)CC2)CCOCC1)c1cccc(C(F)(F)F)n1` [Example 190, N-((4-(4-(2-fluoro-2-methylpropyl)piperazin-1-yl)tetrahydro-2H-pyran-4-yl)methyl)-N-(6-(trifluoromethyl)pyridin-2-yl)propionamide] as the molecule, how does the pKi read?
Its pKi is > 6.30.

`CCC(=O)N(CC1(N2CCN(CC(C)(C)OC)CC2)CCOCC1)c1cccc(C(F)(F)F)n1` [Example 191, N-((4-(4-(2-Methoxy-2-methylpropyl)piperazin-1-yl)tetrahydro-2H-pyran-4-yl)methyl)-N-(6-(trifluoromethyl)pyridin-2-yl)propionamide] was tested. Which pKi did it give?
Its pKi is < 6.30.

For `CCC(=O)N(CC1(N2CCN(CCc3ncccc3F)CC2)CCOCC1)c1cccc(C(F)(F)F)n1` [Example 192, N-((4-(4-(2-(3-Fluoropyridin-2-yl)ethyl)piperazin-1-yl)tetrahydro-2H-pyran-4-yl)methyl)-N-(6-(trifluoromethyl)pyridin-2-yl)propionamide], which “μ and σ1 dual” value is on record?
The value was “++”.

How did the pKi turn out when `CCC(=O)N(CC1(N2CCN(Cc3ccccc3)CC2)CCC1)c1cccc(C(F)(F)F)n1` [Example 197, N-((1-(4-benzylpiperazin-1-yl)cyclobutyl)methyl)-N-(6-(trifluoromethyl)pyridin-2-yl)propionamide] was run?
The pKi was > 7.00.

`CCC(=O)N(CC1(N2CC3CN(CC(C)C)CC3C2)CCOCC1)c1cccc(C(F)(F)F)n1` (stereo not drawn) [Example 199, N-((4-(5-isobutylhexahydropyrrolo[3,4-c]pyrrol-2(1H)-yl)tetrahydro-2H-pyran-4-yl)methyl)-N-(6-(trifluoromethyl)pyridin-2-yl)propionamide] was tested. Which pKi did it give?
Its pKi is < 6.30.

`CCOCCN1CC2CN(C3(CN(C(=O)CC)c4cccc(C(F)(F)F)n4)CCOCC3)CC2C1` (stereo not drawn) [Example 200, N-((4-(5-(2-ethoxyethyl)hexahydropyrrolo[3,4-c]pyrrol-2(1H)-yl)tetrahydro-2H-pyran-4-yl)methyl)-N-(6-(trifluoromethyl)pyridin-2-yl)propionamide] was tested. Which pKi (read-out: μ and σ1 dual (binding to the σ1 receptor and the μ-opioid receptor expressed as Ki)) did it give?
The pKi was < 6.30.

With `CCC(=O)N(CC1(N2CCN(CCc3cccnc3)CC2)CCOCC1)c1cccc(C(F)(F)F)n1` [Example 201, N-((4-(4-(2-(pyridin-3-yl)ethyl)piperazin-1-yl)tetrahydro-2H-pyran-4-yl)methyl)-N-(6-(trifluoromethyl)pyridin-2-yl)propionamide] as the molecule, how does the “μ and σ1 dual” value read?
The value was “++”.

`CCOCCN1CCN(C2(CN(C(=O)CC)c3cccc(C(F)(F)F)n3)CCC2)CC1` [Example 202, N-((1-(4-(2-ethoxyethyl)piperazin-1-yl)cyclobutyl)methyl)-N-(6-(trifluoromethyl)pyridin-2-yl)propionamide] was tested. Which pKi did it give?
Its pKi is > 6.30.

`CCC(=O)N(CC1(N2CCN(CC(C)C)CC2)CCC1)c1cccc(C(F)(F)F)n1` [Example 203, N-((1-(4-isobutylpiperazin-1-yl)cyclobutyl)methyl)-N-(6-(trifluoromethyl)pyridin-2-yl)propionamide] was tested. Which pKi did it give?
The pKi was > 6.30.

With `CCC(=O)N(CC1(N2CCN(CC(C)C)CC2)CCSCC1)c1cccc(C(F)(F)F)n1` [Example 204, N-((4-(4-isobutylpiperazin-1-yl)tetrahydro-2H-thiopyran-4-yl)methyl)-N-(6-(trifluoromethyl)pyridin-2-yl)propionamide] as the molecule, how does the pKi read?
The pKi was > 6.30.

`CCOCCN1CCN(C2(CN(C(=O)CC)c3cccc(C(F)(F)F)n3)CCSCC2)CC1` [Example 205, N-((4-(4-(2-ethoxyethyl)piperazin-1-yl)tetrahydro-2H-thiopyran-4-yl)methyl)-N-(6-(trifluoromethyl)pyridin-2-yl)propionamide] was tested. Which pKi did it give?
Its pKi is > 6.30.

`CCC(=O)N(CC1(N2CCN(CCc3ccncc3)CC2)CCOCC1)c1cccc(C(F)(F)F)n1` [Example 206, N-((4-(4-(2-(pyridin-4-yl)ethyl)piperazin-1-yl)tetrahydro-2H-pyran-4-yl)methyl)-N-(6-(trifluoromethyl)pyridin-2-yl)propionamide] was tested. Which pKi did it give?
The pKi was > 6.30.
